Experimental data taken from patent publication US9675556B2, “Biodegradable stealth polymeric particles fabricated using the macromonomer approach by free radical dispersion polymerization” (Howard University, priority 2010, dated 2017).

Columns and labels:
Assay in all cases: CellTiter-Glo luminescent cell viability assay (in vitro cytotoxicity)
Type in all cases: cell-based
Details in all cases: […] to 120 nM paclitaxel, 48, 72 and 96 hours
[1] = test system: MCF-7 cells
Protocol: (§1) The concentrations tested range from 2.5 nM to 120 nM. The experiment was carried out as follows: Cultured cells (MCF-7, SK-OV 3, and MDA-MB-231) were seeded in 96-well plates at a seeding density of 6000 cells/well/0.1 mL medium and allowed to attach for 24 hours. […] To allow direct comparison, the amount of paclitaxel-loaded nanoparticles containing the same amount of paclitaxel as the paclitaxel in solution was used. Control cells were treated with medium only, medium with 0.05% DMSO, and medium containing blank nanoparticles at the highest concentration tested.
(§2) Cell viability was assessed at 48-, 72- and 96-hours post treatment respectively. Briefly, at the predetermined time intervals the treatment was washed off and fresh medium added. An amount of the CellTiter®-Glo reagent equal to the amount of medium was added. The plate was mixed by shaking on an orbital shaker for 2 minutes to induce cell lysis and luminescence was measured after 10 minutes using the FLUOstar OPTIMA plate reader (BMG LABTECH). In this assay, the number of viable cells in culture is determined by quantification of the ATP present which is an index of the presence of metabolically active cells (CellTiter®-Glo Luminescent Cell Viability Assay Technical Bulletin, TB 288; Promega). Results are presented as percent viability normalized to controls and represent the mean±S.D. of 4 replicates per concentration tested, as shown in FIG. 9. The results were analyzed by using Student's t-test using the SPSS® statistical software. Differences were considered significant at p<0.05.

[2] = test system: SK-OV-3 cells
Protocol: as §1, §2

[3] = test system: MDA-MB-231 cells
Protocol: as §1, §2

Measured: cell growth inhibition (cell viability)

CC(=O)O[C@H]1C(=O)[C@@]2(C)[C@H]([C@H](OC(=O)c3ccccc3)[C@]3(O)C[C@H](OC(=O)[C@H](O)[C@@H](NC(=O)c4ccccc4)c4ccccc4)C(C)=C1C3(C)C)[C@]1(OC(C)=O)CO[C@@H]1C[C@@H]2O [paclitaxel solution, paclitaxel]
inhibited cell growth: all assays above
